Source: patent US8569380B2, “Oligomer-tricyclic conjugates” (Nektar Therapeutics, priority 2007, dated 2013)
“And” between values parts separate entries of the source, which are not always exact repeats. Equal values may be shown once. Read-outs that look alike come from different tables or passages of the source.

How the values were obtained:
[1] = biological target: T1, recombinant human M5 muscarinic acetylcholine receptor (Homo sapiens, UniProt P08912); assay: Muscarinic receptor binding assay, M5; conditions: 3H-N-Methylscopolamine 0.8 nM, CHO membranes
T1 construct: expressed in transfected cells; host or cells: CHO cells (membranes)
T1 sequence (P08912 1-532): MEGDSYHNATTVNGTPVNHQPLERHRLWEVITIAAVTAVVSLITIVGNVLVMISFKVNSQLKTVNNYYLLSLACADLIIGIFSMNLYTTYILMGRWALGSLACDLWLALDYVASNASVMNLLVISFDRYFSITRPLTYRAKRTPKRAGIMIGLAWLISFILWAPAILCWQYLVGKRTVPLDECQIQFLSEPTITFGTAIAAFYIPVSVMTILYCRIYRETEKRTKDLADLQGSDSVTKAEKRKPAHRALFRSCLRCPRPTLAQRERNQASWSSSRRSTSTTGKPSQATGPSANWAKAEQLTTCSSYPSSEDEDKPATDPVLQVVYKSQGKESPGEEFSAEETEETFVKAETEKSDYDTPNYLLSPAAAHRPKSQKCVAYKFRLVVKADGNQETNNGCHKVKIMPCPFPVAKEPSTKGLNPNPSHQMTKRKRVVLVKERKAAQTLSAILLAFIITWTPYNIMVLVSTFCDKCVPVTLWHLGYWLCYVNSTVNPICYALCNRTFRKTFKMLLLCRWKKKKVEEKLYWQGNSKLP
Description: (§1) Competition binding experiments were conducted by incubating membranes with a fixed concentration of radioligand in the presence of variable concentrations of test compounds. ^3H—N-Methylscopolamine at 0.8 nM was used as the radioligand for all receptor subtypes. Incubations were carried out for 2 hours at 25° C. in buffer containing 50 mM Tris HCl, 10 mM MgCl2 and 1 mM EDTA. Following incubations, the membranes were washed the bound radioactivity was measured. […] Ki was obtained using the Cheng Prusoff correction using Kd values that were experimental determined previously under these assay conditions.

[2] = biological target: T2, recombinant human M4 muscarinic acetylcholine receptor (Homo sapiens, UniProt P08173); assay: Muscarinic receptor binding assay, M4; conditions: 3H-N-Methylscopolamine 0.8 nM, CHO membranes
T2 construct: expressed in transfected cells; host or cells: CHO cells (membranes)
T2 sequence (P08173 1-479): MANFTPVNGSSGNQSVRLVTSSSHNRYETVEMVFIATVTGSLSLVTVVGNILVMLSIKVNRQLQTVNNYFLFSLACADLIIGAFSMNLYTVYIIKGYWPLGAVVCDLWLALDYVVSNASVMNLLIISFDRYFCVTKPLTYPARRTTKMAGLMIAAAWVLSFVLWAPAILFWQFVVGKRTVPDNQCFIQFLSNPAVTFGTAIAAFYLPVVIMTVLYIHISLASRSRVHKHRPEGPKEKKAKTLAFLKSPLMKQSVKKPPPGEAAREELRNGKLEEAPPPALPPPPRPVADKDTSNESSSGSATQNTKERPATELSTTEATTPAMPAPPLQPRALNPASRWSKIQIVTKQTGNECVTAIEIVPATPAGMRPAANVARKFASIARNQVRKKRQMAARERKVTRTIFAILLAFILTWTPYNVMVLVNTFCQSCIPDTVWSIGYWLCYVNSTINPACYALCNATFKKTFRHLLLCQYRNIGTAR
Description: as §1

[3] = system: sodium channels (neuronal INa) in isolated rat dorsal root ganglion cells; assay: Sodium channel assay, whole-cell patch clamp, neuronal INa; format: cell-based; conditions: for IC50: approximate, >50% inhibition not obtained at highest concentration
[4] = biological target: sodium channels (cardiac INa) in isolated human atrial myocytes (Homo sapiens, UniProt Q14524); assay: Sodium channel assay, whole-cell patch clamp, cardiac INa; format: cell-based; conditions: for IC50: approximate, >50% inhibition not obtained at highest concentration
[5] = biological target: T3, recombinant human H2 histamine receptor (Homo sapiens, UniProt P25021); assay: Histamine receptor radioligand binding assay, H2; conditions: for H2 Receptor Fold-change over parent: Ki relative to amitriptyline; for Ki: [125I]-Aminopotentidine 0.1 nM, CHO membranes
T3 construct: expressed in transfected cells; host or cells: CHO cells (membranes)
Description: (§2) Competition binding experiments were conducted by incubating membranes with a fixed concentration of radioligand in the presence of variable concentrations of test compounds. The radioligands used were specific for each receptor subtype and the assay conditions are described in Table 2. Following incubations, the membranes were washed and the bound radioactivity was measured. Non-specific binding was measured in the presence of excess unlabelled ligand; this value was subtracted from the total binding yielding the specific binding at each test compound concentration.
(§3) Ki was obtained using the Cheng Prusoff correction using experimental Kd values that were previously determined under the same assay conditions.

[6] = biological target: T4, recombinant human H1 histamine receptor (Homo sapiens, UniProt P35367); assay: Histamine receptor radioligand binding assay, H1; conditions: for H1:H2 Selectivity: H2 Ki versus H1 Ki; for H1 Receptor Fold-change over parent: Ki relative to amitriptyline; for Ki: [3H]-Pyrilamine 1.2 nM, CHO membranes
T4 construct: expressed in transfected cells; host or cells: CHO cells (membranes)
Description: as §2, §3

[7] = pKa and LogP determinations; format: physicochemical
[8] = biological target: T5, noradrenalin transporters (rat forebrain membranes) (Rattus norvegicus, UniProt Q9WTR4); assay: Noradrenalin transporter binding assay; conditions: for Ki: [3H]-nisoxetine 1.0 nM, rat forebrain membranes, read-out: Ki, binding affinity to noradrenalin transporters
T5 construct: membranes prepared from rat forebrain which express noradrenalin transporters; from tissue; host or cells: rat forebrain membranes
Description: Competition binding experiments were conducted by incubating membranes with 1.0 nM of radioligand, [^3H]-nisoxetine, in the presence of variable concentrations (0.1 nM to 3 μM and 3 nM to 100 μM for parent and PEG conjugates, respectively) of test compounds. The reaction was carried out in 50 mM Tris-HCl (pH 7.4), 300 mM NaCl, 5 mM KCl at 0-4° C. for 4 hours. Following incubations, the membranes were washed, and the bound radioactivity was measured.
Ki was obtained using the Cheng Prusoff correction using experimental Kd values that were previously determined under these assay conditions.

[9] = biological target: T6, recombinant human M1 muscarinic acetylcholine receptor (Homo sapiens, UniProt P11229); assay: Muscarinic receptor binding assay, M1; conditions: 3H-N-Methylscopolamine 0.8 nM, CHO membranes
T6 construct: expressed in transfected cells; host or cells: CHO cells (membranes)
T6 sequence (P11229 1-460): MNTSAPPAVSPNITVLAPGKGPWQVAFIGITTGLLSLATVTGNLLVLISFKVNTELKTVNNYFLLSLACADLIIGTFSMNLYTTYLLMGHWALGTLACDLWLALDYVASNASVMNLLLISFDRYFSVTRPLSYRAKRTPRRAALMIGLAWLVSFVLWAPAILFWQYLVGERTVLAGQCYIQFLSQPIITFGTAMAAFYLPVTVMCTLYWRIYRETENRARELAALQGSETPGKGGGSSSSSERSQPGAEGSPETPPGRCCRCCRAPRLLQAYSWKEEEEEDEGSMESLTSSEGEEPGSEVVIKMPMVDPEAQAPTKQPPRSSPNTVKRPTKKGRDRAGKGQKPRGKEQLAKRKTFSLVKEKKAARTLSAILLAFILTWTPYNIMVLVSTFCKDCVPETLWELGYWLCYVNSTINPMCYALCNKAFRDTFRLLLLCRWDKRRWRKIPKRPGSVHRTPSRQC
Description: as §1

[10] = biological target: T7, recombinant human M2 muscarinic acetylcholine receptor (Homo sapiens, UniProt P08172); assay: Muscarinic receptor binding assay, M2; conditions: 3H-N-Methylscopolamine 0.8 nM, CHO membranes
T7 construct: expressed in transfected cells; host or cells: CHO cells (membranes)
T7 sequence (P08172 1-466): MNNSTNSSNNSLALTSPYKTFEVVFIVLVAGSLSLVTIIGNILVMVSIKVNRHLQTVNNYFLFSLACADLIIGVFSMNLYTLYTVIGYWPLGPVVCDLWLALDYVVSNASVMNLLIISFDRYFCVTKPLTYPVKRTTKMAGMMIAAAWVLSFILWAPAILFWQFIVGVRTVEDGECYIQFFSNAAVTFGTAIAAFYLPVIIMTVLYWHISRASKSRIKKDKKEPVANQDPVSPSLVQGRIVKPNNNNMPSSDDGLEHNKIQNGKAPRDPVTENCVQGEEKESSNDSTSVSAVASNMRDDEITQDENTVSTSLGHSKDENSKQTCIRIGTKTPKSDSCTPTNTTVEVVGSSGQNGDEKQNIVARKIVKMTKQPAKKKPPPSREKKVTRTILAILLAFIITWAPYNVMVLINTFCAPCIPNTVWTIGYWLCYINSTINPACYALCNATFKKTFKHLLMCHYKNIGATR
Description: as §1

[11] = pacing 0.1 Hz, read-out: Neuronal INa IC50 at 0.1 Hz
[12] = pacing 3 Hz, read-out: Neuronal INa IC50 at 3 Hz
[13] = pacing 0.1 Hz, read-out: Cardiac INa IC50 at 0.1 Hz
[14] = pacing 3 Hz, read-out: Cardiac INa IC50 at 3 Hz

T5 sequence (Q9WTR4 1-597): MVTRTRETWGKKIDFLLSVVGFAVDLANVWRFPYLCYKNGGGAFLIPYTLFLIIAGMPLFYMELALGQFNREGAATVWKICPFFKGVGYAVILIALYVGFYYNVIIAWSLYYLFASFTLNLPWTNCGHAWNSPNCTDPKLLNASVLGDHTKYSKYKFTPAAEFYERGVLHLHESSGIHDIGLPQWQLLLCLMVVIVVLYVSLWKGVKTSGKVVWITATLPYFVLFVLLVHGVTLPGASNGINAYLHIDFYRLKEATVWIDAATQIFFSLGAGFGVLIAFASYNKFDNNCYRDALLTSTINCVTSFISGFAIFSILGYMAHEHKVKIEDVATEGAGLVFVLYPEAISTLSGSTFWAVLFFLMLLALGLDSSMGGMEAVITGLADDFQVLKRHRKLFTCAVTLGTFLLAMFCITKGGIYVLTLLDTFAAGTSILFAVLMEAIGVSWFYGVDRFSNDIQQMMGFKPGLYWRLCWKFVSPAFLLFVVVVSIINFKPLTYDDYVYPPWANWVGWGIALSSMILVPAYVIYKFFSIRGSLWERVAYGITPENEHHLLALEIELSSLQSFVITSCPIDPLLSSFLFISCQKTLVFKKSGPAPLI
T3 sequence (P25021 whole entry): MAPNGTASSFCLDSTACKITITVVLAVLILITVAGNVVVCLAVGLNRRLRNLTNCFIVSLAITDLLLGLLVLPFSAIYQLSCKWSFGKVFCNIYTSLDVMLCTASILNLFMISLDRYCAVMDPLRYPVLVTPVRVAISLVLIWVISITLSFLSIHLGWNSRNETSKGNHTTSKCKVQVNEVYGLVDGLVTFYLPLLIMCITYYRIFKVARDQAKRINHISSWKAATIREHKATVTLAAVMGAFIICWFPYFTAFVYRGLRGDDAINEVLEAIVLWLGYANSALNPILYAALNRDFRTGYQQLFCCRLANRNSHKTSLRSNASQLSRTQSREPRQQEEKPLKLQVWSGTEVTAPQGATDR
T4 sequence (P35367 whole entry): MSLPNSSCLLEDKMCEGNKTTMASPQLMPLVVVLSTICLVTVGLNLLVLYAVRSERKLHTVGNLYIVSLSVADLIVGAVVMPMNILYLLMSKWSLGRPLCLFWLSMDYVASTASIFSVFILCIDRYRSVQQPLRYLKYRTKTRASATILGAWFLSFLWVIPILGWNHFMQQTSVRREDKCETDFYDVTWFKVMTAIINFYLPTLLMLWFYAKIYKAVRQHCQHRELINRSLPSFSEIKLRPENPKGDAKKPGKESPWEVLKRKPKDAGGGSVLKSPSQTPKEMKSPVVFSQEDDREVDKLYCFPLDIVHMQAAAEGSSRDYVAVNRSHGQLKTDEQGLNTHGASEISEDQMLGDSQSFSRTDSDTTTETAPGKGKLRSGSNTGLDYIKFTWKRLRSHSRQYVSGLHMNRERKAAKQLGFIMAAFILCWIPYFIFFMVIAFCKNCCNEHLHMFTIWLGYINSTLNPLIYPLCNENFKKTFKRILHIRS
Sequence of sodium channels (cardiac INa) in isolated human atrial myocytes (Q14524 whole entry): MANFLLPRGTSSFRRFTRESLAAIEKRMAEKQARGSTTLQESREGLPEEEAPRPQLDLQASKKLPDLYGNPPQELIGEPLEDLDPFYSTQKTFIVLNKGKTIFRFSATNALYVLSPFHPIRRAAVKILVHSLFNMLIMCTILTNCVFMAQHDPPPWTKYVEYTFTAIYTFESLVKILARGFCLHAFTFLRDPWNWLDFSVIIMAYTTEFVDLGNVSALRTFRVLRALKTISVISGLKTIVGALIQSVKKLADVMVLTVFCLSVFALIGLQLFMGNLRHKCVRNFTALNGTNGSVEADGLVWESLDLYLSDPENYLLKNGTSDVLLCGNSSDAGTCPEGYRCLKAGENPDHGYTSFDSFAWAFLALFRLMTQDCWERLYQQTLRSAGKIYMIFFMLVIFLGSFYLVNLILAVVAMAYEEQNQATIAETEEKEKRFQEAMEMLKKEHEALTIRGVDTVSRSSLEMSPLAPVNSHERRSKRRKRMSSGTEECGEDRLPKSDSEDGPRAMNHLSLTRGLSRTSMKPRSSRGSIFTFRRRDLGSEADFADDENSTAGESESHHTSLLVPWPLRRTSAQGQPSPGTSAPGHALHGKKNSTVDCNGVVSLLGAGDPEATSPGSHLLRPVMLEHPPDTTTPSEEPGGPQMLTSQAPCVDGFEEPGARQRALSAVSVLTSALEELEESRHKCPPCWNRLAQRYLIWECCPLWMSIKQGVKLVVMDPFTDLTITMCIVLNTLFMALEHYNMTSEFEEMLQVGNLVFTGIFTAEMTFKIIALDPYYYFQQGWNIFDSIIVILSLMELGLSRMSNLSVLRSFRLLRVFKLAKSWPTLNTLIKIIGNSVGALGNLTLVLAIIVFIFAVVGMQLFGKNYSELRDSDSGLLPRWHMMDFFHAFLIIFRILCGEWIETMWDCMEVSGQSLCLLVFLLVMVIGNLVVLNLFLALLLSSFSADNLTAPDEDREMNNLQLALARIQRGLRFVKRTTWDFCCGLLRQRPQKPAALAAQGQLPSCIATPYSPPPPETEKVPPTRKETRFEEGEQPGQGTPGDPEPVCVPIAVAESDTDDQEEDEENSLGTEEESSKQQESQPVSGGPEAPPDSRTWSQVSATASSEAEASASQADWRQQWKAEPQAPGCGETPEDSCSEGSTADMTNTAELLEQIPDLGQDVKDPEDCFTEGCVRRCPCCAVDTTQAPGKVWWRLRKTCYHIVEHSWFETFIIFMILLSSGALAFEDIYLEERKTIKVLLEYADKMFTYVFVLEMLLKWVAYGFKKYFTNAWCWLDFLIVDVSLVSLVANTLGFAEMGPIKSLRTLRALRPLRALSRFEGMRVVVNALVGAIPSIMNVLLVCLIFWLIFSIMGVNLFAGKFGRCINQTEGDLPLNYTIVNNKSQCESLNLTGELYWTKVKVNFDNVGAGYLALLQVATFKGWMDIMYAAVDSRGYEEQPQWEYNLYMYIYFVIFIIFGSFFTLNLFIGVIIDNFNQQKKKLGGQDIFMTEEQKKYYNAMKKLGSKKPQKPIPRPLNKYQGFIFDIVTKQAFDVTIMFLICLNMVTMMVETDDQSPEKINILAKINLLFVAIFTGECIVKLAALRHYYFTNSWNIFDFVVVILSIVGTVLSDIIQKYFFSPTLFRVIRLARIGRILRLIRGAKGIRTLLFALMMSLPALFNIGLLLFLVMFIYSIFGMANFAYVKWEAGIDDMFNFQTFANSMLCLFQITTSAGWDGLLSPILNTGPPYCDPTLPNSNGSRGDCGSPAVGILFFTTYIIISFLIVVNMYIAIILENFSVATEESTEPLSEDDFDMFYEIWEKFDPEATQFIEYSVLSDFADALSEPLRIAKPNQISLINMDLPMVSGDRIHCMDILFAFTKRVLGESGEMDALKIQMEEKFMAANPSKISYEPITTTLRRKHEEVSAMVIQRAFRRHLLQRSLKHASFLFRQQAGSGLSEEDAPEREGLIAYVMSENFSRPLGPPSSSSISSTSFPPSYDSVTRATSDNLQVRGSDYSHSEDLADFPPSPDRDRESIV

For `CN(C)CCC=C1c2ccccc2CCc2ccccc21` [Amitriptyline], which Ki [1] is on record?
The Ki was 17 nM.

What about the Ki [2] of the same molecule?
Its Ki is 23.9 nM.

Which IC50 [3, 11] does the source give for `NC(=O)N1c2ccccc2C=Cc2ccccc21` [Carbamazepine, reference compound] here?
Its IC50 is 102 µM.

And the IC50 [3, 12]?
Its IC50 is 114 µM.

What about the “Cardiac INa Fold Change Relative to Parent, 0.1 Hz” value ([4]; pacing 0.1 Hz, relative to carbamazepine) of the same molecule?
The value was 1.0.

What about the IC50 [4, 13] of the same molecule?
Its IC50 is 160 µM.

What about the “Cardiac INa Fold Change Relative to Parent, 3 Hz” value ([4]; pacing 3 Hz, relative to carbamazepine) of the same molecule?
The value was 1.0.

What about the IC50 [4, 14] of the same molecule?
The IC50 was 145 µM.

Which “reduction of INa” value [3] does the source give for `NC1=N[C@H](O)[C@H]2[C@H]3O[C@]4(O)O[C@@H]([C@@H](O)[C@@]2(N1)[C@@H]4O)[C@]3(O)CO` [TTX, tetrodotoxin, reference compound] here?
Its value is 93.2% and 96.8%.

And the “reduction of INa” value [4]?
Its value is 47.2% and 56.8%.

Which results are given for `COCCOCCOCCN(C)CCC=C1c2ccccc2CCc2ccccc21` [mPEG3-N-Amitriptyline]?
H2 Receptor Fold-change over parent [5]: 14; Ki [5]: 3.01 µM; H1:H2 Selectivity [6]: 1663; H1 Receptor Fold-change over parent [6]: 6; Ki [6]: 1.81 nM

With `COCCOCCOCCNC(=O)N1c2ccccc2C=Cc2ccccc21` [mPEG3-N-Carbamazepine] as the molecule, how does the IC50 [3, 11] read?
Its IC50 is 142 µM.

What about the IC50 [3, 12] of the same molecule?
The IC50 was 578 µM.

And the “Cardiac INa Fold Change Relative to Parent, 0.1 Hz” value [4]?
Its value is 2.8.

And the “Cardiac INa Fold Change Relative to Parent, 3 Hz” value [4]?
Its value is 1.5.

And the IC50 [4, 13]?
The IC50 was 460 µM.

What about the IC50 [4, 14] of the same molecule?
The IC50 was 214 µM.

For `COCCOCCOCCN(C)CCCN1c2ccccc2CCc2ccccc21` [mPEG3-N-Desipramine], which pKa [7] is on record?
The pKa was 8.47.

Which results are given for `COCCOCCOCCNCCCN1c2ccccc2CCc2ccccc21` [mPEG3-NH-Desipramine, N-mPEG3-3-(10,11-dihydro-dibenzo[b,f]azepin-5-yl)-propylamine]?
logP [7]: 3.14; pKa [7]: 8.96; Fold Change Relative to Parent [8]: 3336; Ki [8]: 6.65 µM

For `COCCOCCOCCOCCOCCN(C)CCC=C1c2ccccc2CCc2ccccc21` [mPEG5-N-Amitriptyline], which “H2 Receptor Fold-change over parent” value [5] is on record?
The value was 63.

And the Ki [5]?
Its Ki is 13.1 µM.

What about the “H1:H2 Selectivity” value [6] of the same molecule?
Its value is 3670.

What about the “H1 Receptor Fold-change over parent” value [6] of the same molecule?
Its value is 11.

What about the Ki [6] of the same molecule?
Its Ki is 3.57 nM.

Which “Cardiac INa Fold Change Relative to Parent, 0.1 Hz” value [4] does the source give for `COCCOCCOCCOCCOCCNC(=O)N1c2ccccc2C=Cc2ccccc21` [mPEG5-N-Carbamazepine] here?
Its value is 0.4.

And the “Cardiac INa Fold Change Relative to Parent, 3 Hz” value [4]?
The value was 0.4.

Which pKa [7] does the source give for `COCCOCCOCCOCCOCCN(C)CCCN1c2ccccc2CCc2ccccc21` [mPEG5-N-Desipramine] here?
Its pKa is 8.55.

Which results are given for `COCCOCCOCCOCCOCCOCCN(C)CCC=C1c2ccccc2CCc2ccccc21` [mPEG6-N-Amitriptyline]?
Ki [9]: 869 nM; Ki [10]: 1170 nM; H1 Receptor Fold-change over parent [6]: 19; Ki [6]: 6.13 nM

What does the source list for `COCCOCCOCCOCCOCCOCCOCCN(C)CCC=C1c2ccccc2CCc2ccccc21` [mPEG7-N-Amitriptyline]?
Ki [10]: 1140 nM; H1 Receptor Fold-change over parent [6]: 23; Ki [6]: 7.44 nM

With `COCCOCCOCCOCCOCCOCCOCCNC(=O)N1c2ccccc2C=Cc2ccccc21` [mPEG7-N-Carbamazepine] as the molecule, how does the IC50 [3, 11] read?
The IC50 was 144 µM.

And the IC50 [3, 12]?
The IC50 was 163 µM.

What about the “Cardiac INa Fold Change Relative to Parent, 0.1 Hz” value [4] of the same molecule?
The value was 2.4.

And the “Cardiac INa Fold Change Relative to Parent, 3 Hz” value [4]?
Its value is 1.2.

And the IC50 [4, 13]?
Its IC50 is 380 µM.

What about the IC50 [4, 14] of the same molecule?
Its IC50 is 169 µM.

With `COCCOCCOCCOCCOCCOCCOCCNCCCN1c2ccccc2CCc2ccccc21` [mPEG7-NH-Desipramine, N-mPEG7-3-(10,11-dihydro-dibenzo[b,f]azepin-5-yl)-propylamine] as the molecule, how does the logP [7] read?
Its logP is 2.5.

What about the pKa [7] of the same molecule?
Its pKa is 8.94.

What about the “Fold Change Relative to Parent” value [8] of the same molecule?
The value was 2972.

What about the Ki [8] of the same molecule?
Its Ki is 5.92 µM.

Which pKa [7] does the source give for `COCCOCCOCCOCCOCCOCCOCCOCCN(C)CCCN1c2ccccc2CCc2ccccc21` [mPEG8-N-Desipramine] here?
Its pKa is 8.66.
